Laboratory results from ChEMBL document CHEMBL1154404 (Antimicrob Agents Chemother, 2007).

Legend:
[1] = system: Plasma; assay: Drug level in patient plasma; type: ADME, cell-free; conditions: human
[2] = Plasma concentration in fatty-liver cirrhosis patient plasma treated at 2 mg, po twice a day for 30 days measured after 15 hrs of last dose; type: ADME, organism-based; conditions: human
[3] = Plasma concentration in fatty-liver cirrhosis patient plasma treated at 2 mg, po twice a day for 30 days measured after 2 days of last dose; type: ADME, organism-based; conditions: human
[4] = Half life in fatty-liver cirrhosis patient treated at 2 mg, po twice a day for 30 days measured after 2 days of last dose; type: ADME, organism-based; conditions: human, in vivo
[5] = Half life in healthy human at 2 mg, po twice a day for 30 days measured after 2 days of last dose; type: ADME, organism-based; conditions: in vivo
[6] = system: Homo sapiens; assay: Volume of distribution in fatty-liver cirrhosis patient treated at 2 mg, po twice a day for 30 days measured after 2 days of last dose; type: ADME, organism-based; conditions: in vivo, 48 h
[7] = system: Homo sapiens; assay: Volume of distribution in healthy human at 2 mg, po twice a day for 30 days measured after 2 days of last dose; type: ADME, organism-based; conditions: in vivo, 48 h
[8] = Plasma concentration in fatty-liver cirrhosis patient treated at 2 mg, po twice a day for 30 days measured after 11 days of last dose; type: ADME, organism-based; conditions: human
[9] = species: Homo sapiens; assay: Drug elimination in healthy human assessed as cytochrome-dependent hepatic metabolism-mediated kidney elimination; type: ADME, organism-based; conditions: in vivo
[10] = species: Homo sapiens; assay: Drug elimination in healthy human assessed as cytochrome-dependent hepatic metabolism-mediated biliary elimination; type: ADME, organism-based; conditions: in vivo

C[C@@H](c1ncncc1F)[C@](O)(Cn1cncn1)c1ccc(F)cc1F [VORICONAZOLE]
Drug uptake [1]: > 2.05 µg/mL | concentration at 15 h [2]: 13900 ng/mL | concentration at 48 h [3]: 10000 ng/mL | half-life [4]: 53.1 h | half-life [5]: 4.7 h | Vd [6]: 0.13 L/kg | Vd [7]: 2.04 L/kg | concentration at 264 h [8]: 660 ng/mL | Activity [9]: 80% | Activity [10]: 20%
